# Test results as given in patent US7572779B2 (priority 2001, dated 2009).
# Assay: Open-label, single-dose, randomized, crossover oral bioavailability study in healthy postmenopausal women volunteers
# Conditions: single oral tablet
# Description: The study was an open-label, single-dose, randomized, crossover, bioavailability study in nine healthy postmenopausal women volunteers.
# Comparison of treatments was based on ratio of least square means from analysis of variance and ratio of individual subject parameter values, e.g. ratio=(AUCtreatment A)/(AUCtreatment B).
smiles,measurement,value
CC(=O)Oc1ccc2c(c1)CC[C@@H]1[C@@H]2CC[C@]2(C)[C@@H](O)CC[C@@H]12 [17β-estradiol-3-acetate],Absorption as indicated by shape of serum estradiol concentration-time profiles,rapidly absorbed and hydrolyzed to 17β-estradiol in vivo
